Experimental findings from patent US20130337564A1, “Treatment of Pluripotent Cells” (Janssen Biotech, Inc., priority 2012, published 2013) are described below.

The test system of experiment [1] is Sox17 expression in human embryonic stem cell line H1. The experiment is described as follows: Dose titration secondary assay: Sox17 intensity, H1. Type of experiment: cell-based. The protocol: (§1) It was important to confirm the activity of hits identified from primary screening and further analyze the range of activity by dose titration. New samples of a selective subset of primary screening hits were obtained as dry powders, solubilized to make fresh stock reagents, and diluted into secondary confirmation assays to evaluate effects on human embryonic stem cells.
(§2) Culture of two human embryonic stem cells (H1 and H9) was conducted as described in Example 1. Colonies of cells were maintained in an undifferentiated, pluripotent state on Matrigel™ ([…]) coated polystyrene plastic, using a 1:30 dilution of Matrigel™ in DMEM:F12 to coat the surface. Cells were split by enzymatic passage every four days on average. Passage was performed by exposing cell monolayers to a solution of collagenase (1 mg/ml; Sigma-Aldrich) for 10 to 60 minutes at 37° C. followed by gentle scraping with a pipette tip to recover cell clusters. Clusters were allowed to sediment by gravity, then washed to remove residual collagenase. Cell clusters were split at a 1:3 ratio for maintenance culture or a 1:1 ratio for subsequent assay. The human embryonic stem cell lines were maintained at less than passage 50 and routinely evaluated for normal karyotypic phenotype and absence of mycoplasma contamination.
(§3) Cell clusters of the H1 or H9 human embryonic stem cell lines used in the assay were evenly resuspended in culture medium and plated onto Matrigel™-coated 96-well Packard VIEWPLATES (PerkinElmer) in volumes of 100 μl/well. MEF conditioned medium supplemented with 8 ng/ml bFGF was used for initial plating and expansion. Daily feeding was conducted by aspirating spent culture medium from each well and replacing with an equal volume of fresh medium. Cultures were allowed to expand one to three days after plating prior to initiating assay. Plates were maintained at 37° C., 5% CO2 in a humidified box for the duration of assay.
(§4) A subset of hits resulting from primary screening was used for follow-up study and subsequent secondary assays. Twenty compounds available as dry powders were solubilized as 10 mM stocks in DMSO and stored dessicated at […] until use Immediately prior to assay, compound stocks were diluted 1:1000 to make 10 μM test compound in DMEM:F12 base medium (Invitrogen) supplemented with 0.5% FCS (HyClone) and 100 ng/ml Activin A (R&D Biosystems). This was further diluted two-fold in series to make a seven point dilution curve for each compound, also in DMEM:F12 base medium with 0.5% FCS and 100 ng/ml Activin A.
(§5) Assay was initiated by aspirating culture medium from cell monolayers in each well followed by three washes in PBS to remove residual growth factors and serum. Test volumes of 100 μl per well were added back containing medium with 0.5% FCS and different concentrations of inhibitor compounds with 100 ng/ml Activin A, without Wnt3a. Positive control wells contained the same base medium with 0.5% FCS and with 20 ng/ml Wnt3a (R&D Biosystems) in the absence of test compound. Negative control wells contained the same base medium with 0.5% FCS, in the absence of Activin A, Wnt3a, or test compound. Assay wells were aspirated and fed again with identical concentrations of test compound or control solutions on day 2 of assay. On days 3 and 4, all assay wells were aspirated and fed with DMEM:F12 supplemented with 2% FCS and 100 ng/ml Activin A in the absence of both test compound or Wnt3a. Parallel negative control wells were maintained on days 3 and 4 in DMEM:F12 base medium with 2% FCS.
(§6) At the end of culture, cells in 96-well plates were washed twice with PBS then fixed with 4% paraformaldehyde at room temperature for 20 minutes, washed three times more with PBS, and then permeabilized with 0.5% Triton X-100 for 20 minutes at room temperature. After fixing and permeabilizing, cells were washed again three times with PBS and then blocked with 4% chicken serum (Invitrogen) in PBS for 30 minutes at room temperature. […]

Experiment [2] concerns human embryonic stem cell line H9. The experiment is described as follows: Dose titration secondary assay: cell number, H9. Type of experiment: cell-based. The protocol: as §1, §2, §3, §4, §5, §6

In the case of `CN1CCOCCOCCN(C)CCn2cc(c3ccccc32)C2=C(C(=O)NC2=O)c2cn(c3ccccc23)CC1` [Compound 112, 12,21-Dimethyl-11,12,13,14,16,17,20,21,22,23-decahydro-1H,10H,19H-9,4:24,29-di(metheno)dibenzo[k,q]pyrrolo[3,4-n][1,4,7,10,19,22]dioxatetraazacyclotetracosine-1,3(2H)-dione], the “Sox17 Intensity” value in experiment [1] (0.156 μM compound) is recorded as 0.922; in experiment [1] (0.313 μM compound), 1.006; in experiment [1] (0.625 μM compound), 1.136; in experiment [1] (1.25 μM compound) it was 1.159; in experiment [1] (2.5 μM compound) it was 0.928; in experiment [1] (5 μM compound) it was 0.728. Moreover, the “Sox17 Intensity” value in experiment [1] (10 μM compound) is given as 0.701. The Cell number worked out at 0.276 in experiment [2] (0.156 μM compound); 0.437 in experiment [2] (0.313 μM compound); 0.686 in experiment [2] (0.625 μM compound); 1.039 in experiment [2] (1.25 μM compound); 1.197 in experiment [2] (2.5 μM compound); 1.281 in experiment [2] (5 μM compound). For the same compound, the Cell number in experiment [2] (10 μM compound) is listed as 1.022.
